Source: patent US9107936B2, “Antagonists of GRASP55 for use as a medicament” (Institut National de la Sante et de la Recherche Medicale …, priority 2012, dated 2015)

Key:
Format in all cases: binding, murine
[1] = biological target: T1, GST-PDZI′ (Grasp55 residues 1 to 107) (Mus musculus, UniProt Q99JX3); experiment: HTRF measurement of interaction of biotinylated C-terminal peptides with GST-PDZI′; conditions: biotinylated JAM-C peptide, GST-PDZI′
T1 construct: GST fusion proteins encompassing residues 1 to 107; made in house; host or cells: bacteria Rosetta
Method: (§1) To refine and extend the results obtained by yeast two hybrid, an Homogenous Time Resolved Fluorescence (HTRF) assay have been set-up to measure interactions of various peptides with recombinant GST proteins corresponding to different regions of Grasp55.
(§2) Briefly, the technique consisted in incubating 18 h at 4° C. the biotinylated-Cterminal peptides (SEQ ID NO: 26 to 34) at the concentration of 1.9*10^−7M with the GST-fusion protein, the terbium-coupled anti-GST antibody (8*10^−10M each) and the d2-coupled streptavidin (4*10^−8M) (both from Cisbio), in 0.1 mL of Hepes 0.05M, NaCl 0.15M BSA 0.1% pH 7.2. In some experiments, competing peptide or chemicals were added to the incubation mix at the indicated concentration. After incubation, microtiter plates (Costar #3693) were red using PolarScan Omega (BMG Labtech) equipped for HTRF measurements. Upon excitation at 320 nm, a 620 nm fluorescence emission is produced by the donor terbium that in turn excites a 665 nm light emission by a Streptavidin-d2 (acceptor) bound to the Biotinylated interacting Peptide if the latter is interacting with the donor. The […] R ratio is obtained and a Delta F is computed as: [(Rsample−RNSB)/RNSB]*100 where RNSB is the Non Specific Background signal determined in incubates where the GST-fusion protein was omitted.
(§3) Having shown that HTRF measurement of interaction is a reliable technology to identify inhibitors of interaction. A screen of a chemical compound library provided by MRCt has been initiated. The screening consisted in the same HTRF technique used in Example 7 except that compounds from the library were added in the incubation mix at the final concentration of 6.6×10^−5M. […] Since such a result could be either due to a specific inhibition of the JAM-C peptide interaction to the recombinant Grasp55 PDZ domains or to a non-specific inhibition of the FRET signal between donor and acceptor in HTRF technology, the twenty selected compounds have been further tested. Indeed, compounds could potentially interfere with the binding of the anti-GST antibody terbium-labeled to the GST of the fusion protein, the binding of Streptavidin-d2 to the biotinylated peptide or promote strong interference at 320, […] or 665 nm. Thus, the putative hits obtained were screened for non-specific inhibition. To this end, the GST-PDZI′+II′ recombinant protein was biotinylated using Sulfo-NHS Biotin according to manufacturer instructions (Pierce). This allows designing an HTRF assay in which the d2-coupled streptavidin (acceptor) and the terbium-coupled anti-GST antibody are directly bound to recombinant GST-PDZI′+II′ protein and produce DeltaF signal independently of the biotinylated peptide. The twenty selected compounds were thus tested in this assay to eliminate those giving false inhibition of the HTRF signals while inhibitors of Biotinylated peptide interaction with GST-PDZI′+II′ should not interfere in this assay.

[2] = biological target: T2, GST-PDZI′+II′ (Grasp55 residues 1 to 208) (Mus musculus, UniProt Q99JX3); experiment: HTRF measurement of interaction of biotinylated C-terminal peptides with GST-PDZI′+II′; conditions: biotinylated JAM-C peptide, GST-PDZI′+II′
T2 construct: and 1 to 208 corresponding respectively to the PDZI′, PDZII′ and PDZI′+II′ constructs; made in house; host or cells: bacteria Rosetta
Method: as §1, §2, §3

[3] = biological target: T3, GST-GraspFL (GST-Grasp55 full length) (Mus musculus, UniProt Q99JX3); experiment: HTRF competition with GST-Grasp55 full length; conditions: biotinylated JAM-C peptide
T3 construct: GST-GraspFL (GST-Grasp55 full length); made in house; host or cells: bacteria Rosetta
Method: as §1
as §2, with “omitted. […]” for “omitted.”

## NYIRTSEEGDFRHKSSFVI [unlabelled peptide]
[1]
  increase in EC50 with GST-PDZI′ versus GST-PDZI′+II′ and GST-GraspFL: twenty fold increase in EC50
[2]
  EC50 of competition of the HTRF signal: low micromolar range
[3]
  EC50 of competition of the HTRF signal: low micromolar range
